Experimental data taken from the NIST ThermoML archive (doi:10.1016/j.jct.2018.05.018).
± gives the expanded uncertainty stated by the source.

Conditions: 100 kPa, Liquid, Vibrating tube method

SMILES | mass density (293.15 K) [kg/m3] | mass density (298.15 K) [kg/m3] | mass density (303.15 K) [kg/m3] | mass density (308.15 K) [kg/m3] | mass density (313.15 K) [kg/m3] | mass density (318.15 K) [kg/m3] | mass density (323.15 K) [kg/m3]
CCO [ethanol] | 789.48 ± 1.5 | 785.12 ± 1.5 | 780.86 ± 1.5 | 776.48 ± 1.5 | 772.17 ± 1.5 | 767.6 ± 1.5 | 763.22 ± 1.5
CO [methanol] | 791.41 ± 1.5 | 786.65 ± 1.5 | 781.85 ± 1.5 | 776.95 ± 1.5 | 771.97 ± 1.5 |  | 
CCCO [propan-1-ol] | 803.52 ± 1.5 | 799.52 ± 1.5 | 795.5 ± 1.5 | 791.43 ± 1.5 | 787.31 ± 1.5 | 783.11 ± 1.5 | 778.79 ± 1.5
